From ChEMBL document CHEMBL2150848, “Artificial ladder-shaped polyethers that inhibit maitotoxin-induced Ca2+ influx in rat glioma C6 cells” (Bioorg Med Chem Lett, 2012)
Calls of active or inactive are those of the source. The rule behind the calls is not given here.

Key:
[1] = tested on: C6; assay: Inhibition of MTX-induced calcium influx in rat glioma C6 cells using 45CaCl2 incubated for 12 mins prior to MTX-challenge measured after 12 mins by scintillation counting; assay type: functional, cell-based
[2] = tested on: C6; assay: Inhibition of MTX-induced calcium influx in rat glioma C6 cells using 45CaCl2 at 10 uM incubated for 12 mins prior to MTX-challenge measured after 12 mins by scintillation counting relative to untreated-control; assay type: functional
[3] = tested on: C6; assay: Inhibition of MTX-induced 45Ca2+ influx in rat glioma C6 cells; assay type: functional, cell-based
[4] = tested on: Mus musculus; assay: Toxicity in ip dosed mouse; assay type: organism-based; details: in vivo

SMILES | EC50 [1] | inhibition [1] | EC50 [3] | also measured
C[C@@]12CC[C@@H]3O[C@@H]4C[C@@H]5O[C@@H]6C[C@@H]7O[C@]8(C)CC[C@@H]9O[C@H](CO)[C@@H](O)C[C@H]9O[C@H]8C[C@H]7O[C@H]6CC[C@@]5(C)O[C@H]4C[C@H]3O[C@H]1C[C@H]1O[C@@H](CCOCc3ccccc3)[C@H](OCc3ccccc3)C[C@@H]1O2 | 15 µM | – | – | –
C[C@@]12CC[C@@H]3O[C@@H]4C[C@@H]5O[C@@H]6C[C@H](O)[C@@H](CO)O[C@H]6CC[C@@]5(C)O[C@H]4C[C@H]3O[C@H]1C[C@H]1O[C@@H](CCOCc3ccccc3)[C@H](OCc3ccccc3)C[C@@H]1O2 | 2 µM | Dose-dependent effect | – | inhibition at 10 µM [2]: 80%
C=C(C=O)C[C@@H]1C[C@H](O)[C@@H]2O[C@@H]3C[C@]4(C)O[C@@H]5/C=C\C[C@@H]6O[C@H]7[C@H](C/C=C\C[C@H]6O[C@H]5CCC[C@H]4O[C@H]3C[C@H]2O1)O[C@@H]1C[C@@H]2O[C@@H]3CC(=O)O[C@H]3C[C@@H](C)C[C@@]2(C)O[C@H]1C[C@@H]7C [BREVETOXIN A] | – | – | 16 µM | –
C=C(C=O)C[C@@H]1C[C@H](O)[C@]2(C)O[C@@H]3C[C@@H]4O[C@@H]5C[C@]6(C)O[C@]7(C)CC[C@@H]8O[C@@H]9C[C@]%10(C)O[C@@H]%11C(C)=CC(=O)O[C@H]%11C[C@H]%10O[C@H]9C[C@@H](C)[C@H]8O[C@H]7C[C@H]6O[C@@]5(C)C/C=C\[C@H]4O[C@H]3C[C@H]2O1 [BREVETOXIN B] | – | Active | 13 µM | –
C=CC[C@H](C)[C@H](C)C[C@@H](O)[C@H](O)[C@@H]1CC[C@@]2(C)O[C@@]3(C)C[C@@]4(C)O[C@H]5/C=C\C[C@H]6O[C@H]7C[C@H]8O[C@H]9C[C@@]%10(C)O[C@@](C)([C@@H]%11CC[C@H]%12O[C@@]%13(C)C[C@H]%14O[C@@]%15(C)C[C@H]%16O[C@@]%17(C)C[C@@H](O)[C@H]([C@@H]%18O[C@H]%19[C@H](O)[C@@H](O)[C@H](C[C@H](O)C[C@@H](O)[C@@H]%20O[C@H]%21[C@H](O)[C@@H](O)[C@H]([C@@H]%22O[C@@H]%23[C@H](O)[C@H]%24O[C@H]%25C[C@H]%26O[C@@H](C[C@H](O)[C@@H](O)[C@H]%27O[C@H]%28[C@H](O)[C@H]%29O[C@H]%30C[C@H]%31O[C@H]%32[C@@H](O)[C@@H](O)[C@H]([C@H](C)[C@H](O)[C@H](C)CC[C@H](OS(=O)(=O)[O-])[C@H](O)[C@H](C)C[C@@H](O)C(=C)/C(C)=C/CO)O[C@@H]%32[C@H](O)C[C@]%31(C)O[C@@H]%30C[C@]%29(C)O[C@@H]%28C[C@H]%27O)[C@H](OS(=O)(=O)[O-])[C@H](O)[C@@H]%26O[C@@H]%25C[C@@H]%24O[C@H]%23[C@H](O)[C@H]%22O)O[C@H]%21C[C@H]%20O)O[C@H]%19C[C@H]%18O)O[C@@H]%17[C@H](O)[C@]%16(C)O[C@@H]%15CC[C@]%14(C)O[C@@H]%13C[C@@H]%12O%11)[C@H](O)C[C@@H]%10O[C@]9(C)CC[C@]8(C)O[C@]7(C)C[C@@H]6O[C@@H]5C[C@@H]4O[C@@H]3C[C@@H]2O1.[Na+].[Na+] [MAITOTOXIN] | – | – | – | LD50 [4]: 0.05 µg/kg
